Source: patent US8779157B2, “MGLUR4 allosteric potentiators, compositions, and methods of treating neurological dysfunction” (Vanderbilt University, priority 2009, dated 2014)

biological target: mGluR4 (UniProt Q14833); experiment: mGluR4 potentiation assay (fluorescence, Ca2+ or thallium/GIRK readout; EC20 agonist); type: cell-based, human / rat; details: half maximal effective concentration for mGluR4 potentiation; species of receptor not given
Description: The disclosed compounds and compositions can be evaluated for their ability to act as a potentiator of metabotropic glutamate receptor activity, in particular mGluR4 activity, by any suitable known methodology known in the art. For example, Chinese Hamster Ovary (CHO) cells transfected with human mGluR4 or HEK cells co-transfected with rat mGluR4 and the G-protein regulated Inwardly Rectifying Potassium channel (GIRK) were plated in clear bottom assay plates for assay in a Hamamatsu FDSS Fluorometric Plate Reader. The cells were loaded with either a Ca2+-sensitive fluorescent dye or the thallium responsive dye and the plates were washed and placed into a suitable kinetic plate reader. For human mGluR4 assays, a fluorescence baseline was established for 3-5 seconds, the disclosed compounds were then added to the cells, and the response in cells was measured. Approximately two and a half minutes later, a concentration of mGluR4 orthosteric agonist (e.g. glutamate or L-AP4) eliciting approximately 20% (EC20) of the maximal agonist response was added to the cells, and the response was measured. Two minutes later, a concentration of mGluR4 agonist (e.g. glutamate or L-AP4) eliciting 80% (EC80) of the maximal agonist response was added to the cells, and the response was measured. For rat mGluR4/GIRK experiments, a baseline was established for approximately five seconds, disclosed compounds were added, and either an EC20 or EC80 concentration of agonist was added approximately two and one half minutes later. Potentiation of the agonist response of mGluR4 by the disclosed compounds was observed as an increase in response to the EC20 concentration of agonist in the presence of compound compared to the response to agonist in the absence of compound. Similarly, antagonism of the agonist response of mGluR4 by the disclosed compounds was observed as a decrease in response to the EC80 concentration of agonist in the presence of compound compared to the response to agonist in the absence of compound.
The above described assay operated in two modes. In the first mode, a range of concentrations of the disclosed compounds are added to cells, followed by a single fixed concentration of agonist. If the compound acts as a potentiatior, an EC50 value for potentiation and a maximum extent of potentiation by the compound at this concentration of agonist is determined by non-linear curve fitting. If the compound acts as a noncompetitive antagonist, an IC50 value is determined by non-linear curve fitting. In the second mode, several fixed concentrations of the disclosed compounds are added to various wells on a plate, followed by a range in concentrations of agonist for each concentration of disclosed compound. The EC50 values for the agonist at each concentration of compound are determined by non-linear curve fitting. A decrease in the EC50 value of the agonist with increasing concentrations of the sample compound (a leftward shift of the agonist concentration-response curve) is an indication of the degree of mGluR4 potentiation at a given concentration of the sample compound. A decrease in the maximal response of the agonist with increasing concentrations of the sample compounds, with or without a rightward shift in agonist potency, is an indication of the degree of noncompetitive antagonism at mGluR4. The second mode also indicates whether the sample compounds also affect the maximum response to mGluR4 to agonists.

| SMILES | EC50 |
| --- | --- |
| COc1cc(NC(=O)c2ccccn2)ccc1N1C(=O)C2CCCCN2C1=O (stereo not shown) [Example 1.3.1, N-(4-(1,3-dioxotetrahydroimidazo[1,5-a]pyridin-2(1H,3H,5H)-yl)-3-methoxyphenyl)picolinamide] | 2700 nM |
| O=C(Nc1ccc(N2C(=O)C3CCCCN3C2=O)c(Cl)c1)c1ccccn1 (stereo not shown) [Example 1.3.2, N-(3-chloro-4-(1,3-dioxotetrahydroimidazo[1,5-a]pyridin-2(1H,3H,5H)-yl)phenyl)picolinamide] | 814 nM |
| O=C(Nc1ccc(N2C(=O)C3CCCCN3C2=O)cc1)c1ccccn1 (stereo not shown) [Example 1.3.3, N-(4-(1,3-dioxotetrahydroimidazo[1,5-a]pyridin-2(1H,3H,5H)-yl)phenyl)picolinamide] | 3120 nM |
| O=C(Nc1ccc(N2C(=O)C3CCCCN3C2=O)c(Cl)c1)c1cccc(F)n1 (stereo not shown) [Example 1.3.4, N-(3-Chloro-4-(1,3-dioxotetrahydroimidazo[1,5-a]pyridin-2(1H,3H,5H)-yl)phenyl)-6-fluoropicolinamide] | 1670 nM |
| O=C(Nc1ccc(N2C(=O)C3CCCCN3C2=O)c(Cl)c1)c1cscn1 (stereo not shown) [Example 1.3.5, N-(3-Chloro-4-(1,3-dioxotetrahydroimidazo[1,5-a]pyridin-2(1H,3H,5H)-yl)phenyl)thiazole-4-carboxamide] | 1980 nM |
| O=C(Nc1ccc(N2C(=O)C3CCCCN3C2=O)c(Cl)c1)c1ccncn1 (stereo not shown) [Example 1.3.6, N-(3-Chloro-4-(1,3-dioxotetrahydroimidazo[1,5-a]pyridin-2(1H,3H,5H)-yl)phenyl)pyrimidine-4-carboxamide] | 2580 nM |
| O=C(Nc1ccc(N2C(=O)C3CCCCN3C2=O)c(Cl)c1)c1ncccc1F (stereo not shown) [Example 1.3.7, N-(3-Chloro-4-(1,3-dioxotetrahydroimidazo[1,5-a]pyridin-2(1H,3H,5H)-yl)phenyl)-3-fluoropicolinamide] | 3310 nM |
| O=C(Nc1ccc(N2C(=O)C3CCCCN3C2=O)c(Cl)c1)c1ccc(Cl)o1 (stereo not shown) [Example 1.3.8, 5-Chloro-N-(3-chloro-4-(1,3-dioxotetrahydroimidazo[1,5-a]pyridin-2(1H,3H,5H)-yl)phenyl)furan-2-carboxamide] | 6200 nM |
| O=C(Nc1ccc(N2C(=O)C3CCCN3C2=O)c(Cl)c1)c1ccccn1 (stereo not shown) [Example 1.3.9, N-(3-chloro-4-(1,3-dioxo-1H-pyrrolo[1,2-c]imidazol-2(3H,5H,6H,7H,7aH)-yl)phenyl)picolinamide] | 2110 nM |
| O=C(Nc1ccc(N2C(=O)C3CCCCN3C2=S)c(Cl)c1)c1ccccn1 (stereo not shown) [Example 1.3.10] | 367 nM |
| CN1CC(=O)N(c2ccc(NC(=O)c3ccccn3)cc2Cl)C1=O [Example 1.3.11, N-(3-chloro-4-(3-methyl-2,5-dioxoimidazolin-1-yl)phenyl)picolinamide] | 7060 nM |
| O=C(Nc1ccc(N2C(=O)NC3(CCCCC3)C2=O)c(Cl)c1)c1ccccn1 [Example 1.3.12, N-(3-chloro-4-(2,4-dioxo-1,3-diazaspiro[4.5]decan-3-yl)phenyl)picolinamide] | 229 nM |
| O=C(Nc1ccc(N2C(=O)NC3(CCCC3)C2=O)c(Cl)c1)c1ccccn1 [Example 1.3.13, N-(3-chloro-4-(2,4-dioxo-1,3-diazaspiro[4.4]nonan-3-yl)phenyl)picolinamide] | 795 nM |
| O=C(Nc1ccc(N2C(=O)NC3(CCC3)C2=O)c(Cl)c1)c1ccccn1 [Example 1.3.14, N-(3-chloro-4-(6,8-dioxo-5,7-diazaspiro[3.4]octan-7-yl)phenyl)picolinamide] | 1280 nM |
| O=C(Nc1ccc(N2C(=O)NC3(CCCCCC3)C2=O)c(Cl)c1)c1ccccn1 [Example 1.3.15, N-(3-chloro-4-(2,4-dioxo-1,3-diazaspiro[4.6]undecan-3-yl)phenyl)picolinamide] | 222 nM |
| CC(C)C[C@]1(C)NC(=O)N(c2ccc(NC(=O)c3ccccn3)cc2Cl)C1=O [Example 1.3.16, (S)-N-(3-chloro-4-(4-isobutyl-4-methyl-2,5-dioxoimidazolidin-1-yl)phenyl)picolinamide] | 3590 nM |
| CC(C)C[C@@]1(C)NC(=O)N(c2ccc(NC(=O)c3ccccn3)cc2Cl)C1=O [Example 1.3.17, (R)-N-(3-chloro-4-(4-isobutyl-4-methyl-2,5-dioxoimidazolidin-1-yl)phenyl)picolinamide] | 1500 nM |
| CC1(C)NC(=O)N(c2ccc(NC(=O)c3ccccn3)cc2Cl)C1=O [Example 1.3.18, N-(3-chloro-4-(4,4-dimethyl-2,5-dioxoimidazolidin-1-yl)phenyl)picolinamide] | 4210 nM |
| C[C@]1(Cc2ccccc2)NC(=O)N(c2ccc(NC(=O)c3ccccn3)cc2Cl)C1=O [Example 1.3.19, (R)-N-(4-(4-Benzyl-4-methyl-2,5-dioxoimidazolidin-1-yl)-3-chlorophenyl)picolinamide] | 840 nM |
| C[C@@]1(Cc2ccccc2)NC(=O)N(c2ccc(NC(=O)c3ccccn3)cc2Cl)C1=O [Example 1.3.20, (S)-N-(4-(4-benzyl-4-methyl-2,5-dioxoimidazolidin-1-yl)-3-chlorophenyl)picolinamide] | 604 nM |
| O=C(Nc1ccc(N2C(=O)C3COCCN3C2=O)c(Cl)c1)c1ccccn1 (stereo not shown) [Example 1.3.21, N-(3-Chloro-4-(1,3-dioxodihydro-1H-imidazo[5,1-c][1,4]oxazin-2(3H,8H,8aH)-yl)phenyl)picolinamide] | 2180 nM |
| O=C(Nc1ccc(N2C(=O)C3COCCN3C2=O)c(Cl)c1)c1ncccc1F (stereo not shown) [Example 1.3.22, N-(3-Chloro-4-(1,3-dioxodihydro-1H-imidazo[5,1-c][1,4]oxazin-2(3H,8H,8aH)-yl)phenyl)-3-fluoropicolinamide] | 5820 nM |
| O=C(Nc1ccc(N2C(=O)C3COCCN3C2=O)c(Cl)c1)c1cccc(Cl)n1 (stereo not shown) [Example 1.3.23, 6-Chloro-N-(3-chloro-4-(1,3-dioxodihydro-1H-imidazo[5,1-c][1,4]oxazin-2(3H,8H,8aH)-yl)phenyl)picolinamide] | 4830 nM |
| O=C(Nc1ccc(N2C(=O)C3COCCN3C2=O)c(Cl)c1)c1cccs1 (stereo not shown) [Example 1.3.24, N-(3-Chloro-4-(1,3-dioxodihydro-1H-imidazo[5,1-c][1,4]oxazin-2(3H,8H,8aH)-yl)phenyl)thiophene-2-carboxamide] | 9500 nM |
| O=C(Nc1ccc(N2C(=O)C3COCCN3C2=O)c(Cl)c1)c1nccs1 (stereo not shown) [Example 1.3.25, N-(3-Chloro-4-(1,3-dioxodihydro-1H-imidazo[5,1-c][1,4]oxazin-2(3H,8H,8aH)-yl)phenyl)thiazole-2-carboxamide] | 6320 nM |
| O=C(Nc1ccc(N2C(=O)C3COCCN3C2=O)c(Cl)c1)c1cscn1 (stereo not shown) [Example 1.3.26, N-(3-Chloro-4-(1,3-dioxodihydro-1H-imidazo[5,1-c][1,4]oxazin-2(3H,8H,8aH)-yl)phenyl)thiazole-4-carboxamide] | 6110 nM |
| O=C(Nc1ccc(N2C(=O)C3COCCN3C2=O)c(Cl)c1)c1ncc(F)cc1F (stereo not shown) [Example 1.3.27, N-(3-Chloro-4-(1,3-dioxodihydro-1H-imidazo[5,1-c][1,4]oxazin-2(3H,8H,8aH)-yl)phenyl)-3,5-difluoropicolinamide] | 2930 nM |
| O=C(Nc1ccc(N2C(=O)C3COCCN3C2=O)c(Cl)c1)c1ccc(Cl)o1 (stereo not shown) [Example 1.3.28, 5-Chloro-N-(3-chloro-4-(1,3-dioxodihydro-1H-imidazo[5,1-c][1,4]oxazin-2(3H,8H,8aH)-yl)phenyl)furan-2-carboxamide] | 8770 nM |
